Experimental data published in BindingDB's records for doi:10.7270/Q2C53J9J (University of Pittsburgh, 2010).

What follows are molecules tested against T1, Glucose-6-phosphate 1-dehydrogenase (Leuconostoc mesenteroides, UniProt P11411) (assay: Leuconostoc G6PDH inhibition potency, SAR follow-up, counter-screen for TbHK1 inhibitor project, biochemical, analogue series, IC50 (AID 2579)).
T1 sequence (P11411 whole entry): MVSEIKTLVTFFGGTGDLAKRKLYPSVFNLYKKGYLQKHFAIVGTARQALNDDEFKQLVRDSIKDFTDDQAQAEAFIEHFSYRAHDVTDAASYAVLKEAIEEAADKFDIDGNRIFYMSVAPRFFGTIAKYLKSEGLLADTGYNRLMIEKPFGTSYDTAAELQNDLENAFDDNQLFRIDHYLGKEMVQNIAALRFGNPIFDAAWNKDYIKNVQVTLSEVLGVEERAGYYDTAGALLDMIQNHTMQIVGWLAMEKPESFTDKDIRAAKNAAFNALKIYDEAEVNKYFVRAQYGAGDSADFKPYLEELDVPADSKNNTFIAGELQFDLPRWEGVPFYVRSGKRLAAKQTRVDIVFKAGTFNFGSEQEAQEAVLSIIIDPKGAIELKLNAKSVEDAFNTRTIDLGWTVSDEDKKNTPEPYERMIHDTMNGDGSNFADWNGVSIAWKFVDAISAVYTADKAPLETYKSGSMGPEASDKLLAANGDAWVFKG
In the case of `O=C(Cn1sc2ccccc2c1=O)Nc1ccccc1Cl` [N-(2-chlorophenyl)-2-(3-oxidanylidene-1,2-benzothiazol-2-yl)ethanamide], the IC50 is reported as greater than 25 µM.
`O=C(Cn1sc2ccccc2c1=O)Nc1ccccc1I` [N-(2-iodanylphenyl)-2-(3-oxidanylidene-1,2-benzothiazol-2-yl)ethanamide] was tested, and the IC50 was greater than 25 µM.
In the case of `COc1ccccc1NC(=O)Cn1sc2ccccc2c1=O` [N-(2-methoxyphenyl)-2-(3-oxidanylidene-1,2-benzothiazol-2-yl)ethanamide], the IC50 is reported as greater than 25 µM.
In the case of `COc1ccc(C(=O)Nc2cc(F)cc(F)c2O)cc1` [N-(3,5-difluoro-2-hydroxyphenyl)-4-methoxybenzamide], the IC50 is reported as greater than 25 µM.
`O=C(Cn1sc2ccccc2c1=O)Nc1cccc(Br)c1` [N-(3-bromophenyl)-2-(3-oxo-1,2-benzothiazol-2-yl)acetamide] gave an IC50 greater than 25 µM.
Molecule `O=C(Cn1sc2ccccc2c1=O)Nc1cccc(F)c1` [N-(3-fluorophenyl)-2-(3-oxo-1,2-benzothiazol-2-yl)acetamide] has an IC50 greater than 25 µM.
In the case of `O=C(Cn1sc2ccccc2c1=O)Nc1ccc(Br)cc1` [N-(4-bromophenyl)-2-(3-oxo-1,2-benzothiazol-2-yl)acetamide], the IC50 is reported as greater than 25 µM.
In the case of `O=C(Cn1sc2ccccc2c1=O)Nc1ccc(Cl)cc1` [N-(4-chlorophenyl)-2-(3-oxidanylidene-1,2-benzothiazol-2-yl)ethanamide], the IC50 is reported as greater than 25 µM.
`O=C(Cn1sc2ccccc2c1=O)Nc1ccc(F)cc1` [N-(4-fluorophenyl)-2-(3-oxo-1,2-benzothiazol-2-yl)acetamide] was tested, and the IC50 was greater than 25 µM.
Work on `O=C(Cn1sc2ccccc2c1=O)Nc1ccc(I)cc1` [N-(4-iodophenyl)-2-(3-oxo-1,2-benzothiazol-2-yl)acetamide] yielded an IC50 greater than 25 µM.
Work on `O=C(NCc1ccccc1)n1sc2ccccc2c1=O` [N-benzyl-3-oxo-1,2-benzothiazole-2-carboxamide] yielded an IC50 greater than 25 µM.
`CN(Cc1ccccc1)C(=O)Cn1sc2ccccc2c1=O` [N-benzyl-N-methyl-2-(3-oxo-1,2-benzothiazol-2-yl)acetamide] gave an IC50 greater than 25 µM.
For `COC(=O)c1cc(Cl)ccc1NC(=O)c1ccc(OC)cc1` [methyl 5-chloranyl-2-[(4-methoxyphenyl)carbonylamino]benzoate], the IC50 was greater than 25 µM.
`COc1ccc(C(=O)NC(CC(=O)O)c2ccccc2)cc1` (centres undefined) [sodium;3-[(4-methoxybenzoyl)amino]-3-phenylpropanoate] was tested, and the IC50 was greater than 25 µM.
